# Results taken from patent publication EP0457318B1, “Alpha-Oxopyrrolo[2,3-b]indole acetic acids, esters, amides and related analogs, a process for their preparation and their use as medicaments” (HOECHST-ROUSSEL PHARMACEUTICALS INCORPORATED, priority 1990, dated 1991).
# Where two headings read alike, the source gives them in different places.
# Legend:
# Brain AChE = biological target: T1, Brain AChE (Rattus norvegicus, UniProt P37136); assay: In vitro inhibition of acetylcholinesterase activity in rat striatum (modified Ellman method); assay type: biochemical
# T1 construct: corpora striata dissected free, weighed and homogenized in 19 volumes; from tissue; host or cells: rat corpora striata homogenate (male Wistar rats)
# Description: Cholinesterases are found throughout the body, both in the brain and in serum. However, only brain acetylcholinesterase (AChE) distribution is correlated with central cholinergic innervation. […] We have determined in vitro inhibition of acetylcholinesterase activity in rat striatum according to the method described below.
# In Vitro Inhibition of Acetylcholinesterase Activity in Rat Striatum
# The method described below was used in this invention for assaying anticholinesterase activity. This is a modification of the method of Ellman et al., Biochem. Pharmacol. 7, 88 (1961).
# • 1. 0.05 M Phosphate buffer, pH 7.2 • (a) 6.85 g NaH2PO4·H2O/100 ml distilled H2O • (b) 13.40 g Na2HPO4·7H2O/100 ml distilled H2O • (c) add (a) to (b) until pH reaches 7.2 • (d) Dilute 1:10 • 2. Substrate in buffer • (a) 198 mg acetylthiocholine chloride (10 mM) • (b) q.s. to 100 ml with 0.05 M NaPO4, pH 7.2 (reagent 1) • 3. DTNB in buffer • (a) 19.8 mg 5,5-dithiobisnitrobenzoic acid (DTNB) (0.5 mM) • (b) q.s. to 100 ml with 0.05M NaPO4, pH 7.2 (reagent 1) • 4. A 2mM stock solution of the test drug is made up in a suitable solvent and q.s. to volume with 0.5 mM DTNB (reagent 3). Drugs are serially diluted (1:10) such that the final concentration (in cuvette) is 10^-4M and screened for activity. If active, IC50 values are determined from the inhibitory activity of subsequent concentrations.
# Male Wistar rats are decapitated, brains rapidly removed, corpora striata dissected free, weighed and homogenized in 19 volumes (approximately 7 mg protein/ml) of 0.05 M phosphate buffer, pH 7.2 using a Potter-Elvehjem homogenizer. A 25 microliter aliquot of the homogenate is added to 1 ml of vehicle or various concentrations of the test drug and preincubated for 10 minutes at 37°C.
# Enzyme activity is measured with the Beckman DU-50 spectrophotometer. This method can be used for IC50 determinations and for measuring kinetic constants.
# Kinetics Soft-Pac Module #598273 (10) Program #6 Kindata: Source - Vis Wavelength - 412 nm Sipper - none Cuvettes - 2 ml cuvettes using auto 6-sampler Blank - 1 for each substrate concentration Interval time - 15 seconds (15 or 30 seconds for kinetics) Total time - 5 minutes (5 or 10 minutes for kinetics) Plot - yes Span - autoscale Slope - increasing Results - yes (gives slope) Factor - 1 […]
# Blank values are determined for each run to control non enzymatic hydrolysis of substrate and these values are automatically substracted by the kindata program available on kinetics soft-pac module. This program also calculates the rate of absorbance change for each cuvette. […]
# IC50 values are calculated from log-probit analysis.
# [1] = tested on: Scopolamine Induced Memory Deficit; assay: Dark Avoidance Assay (reversal of scopolamine induced memory deficit); assay type: in vivo; conditions: mice, s.c., retest after 24 hours
# Method: In this assay mice are tested for their ability to remember an unpleasant stimulus for a period of 24 hours. A mouse is placed in a chamber that contains a dark compartment; a strong incandescent light drives it to the dark compartment, where an electric shock is administered through metal plates on the floor. The animal is removed from the testing apparatus and tested again, 24 hours later, for the ability to remember the electric shock.
# If scopolamine, an anticholinergic that is known to cause memory impairment, is administered before an animal's initial exposure to the test chamber, the animal re-enters the dark compartment shortly after being placed in the test chamber 24 hours later. This effect of scopolamine is blocked by an active test compound, resulting in a greater interval before re-entry into the dark compartment.
# The results for an active compound are expressed as the percent of a group of animals in which the effect of scopolamine is blocked, as manifested by an increased interval between being placed in the test chamber and re-entering the dark compartment.
# [2] = rat striatum homogenate, preincubated 10 minutes at 37°C, 5 mM acetylthiocholine, pH 7.2, read-out: Inhibitory Concentration (IC50) Brain AChE
# T1 sequence (P37136 32-614): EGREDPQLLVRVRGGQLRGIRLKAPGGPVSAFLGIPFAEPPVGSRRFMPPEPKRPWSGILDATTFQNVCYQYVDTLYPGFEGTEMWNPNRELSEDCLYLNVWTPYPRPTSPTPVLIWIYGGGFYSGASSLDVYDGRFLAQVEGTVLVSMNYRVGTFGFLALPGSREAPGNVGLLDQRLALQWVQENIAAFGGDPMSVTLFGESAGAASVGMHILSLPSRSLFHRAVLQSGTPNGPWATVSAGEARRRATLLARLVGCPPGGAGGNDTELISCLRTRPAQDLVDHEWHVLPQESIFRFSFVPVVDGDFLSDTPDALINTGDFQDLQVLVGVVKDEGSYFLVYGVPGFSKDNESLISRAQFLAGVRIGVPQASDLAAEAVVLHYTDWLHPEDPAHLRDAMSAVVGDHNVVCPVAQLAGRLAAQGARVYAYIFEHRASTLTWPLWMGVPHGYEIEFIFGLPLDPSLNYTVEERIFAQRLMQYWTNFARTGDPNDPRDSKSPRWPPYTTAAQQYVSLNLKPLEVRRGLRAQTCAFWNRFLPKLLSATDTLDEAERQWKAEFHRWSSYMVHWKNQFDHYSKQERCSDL
smiles,measurement,setting,value
"CCCCOC(=O)C(=O)c1ccc2c(c1)C1(C)CCN(C)C1N2C (stereo not drawn) [1,2,3,3a,8,8a-Hexahydro-α-oxo-1,3a,8-trimethyl-5-pyrrolo[2,3-b]indole acetic acid, n-butyl ester]",IC50,Brain AChE; [2],5.7 µM
"CCCCCOC(=O)C(=O)c1ccc2c(c1)C1(C)CCN(C)C1N2C (stereo not drawn) [1,2,3,3a,8,8a-Hexahydro-α-oxo-1,3a,8-trimethyl-5-pyrrolo[2,3-b]indole acetic acid, n-pentyl ester]",IC50,Brain AChE; [2],8 µM
"CN1CCC2(C)c3cc(C(=O)C(=O)OCCc4ccccc4)ccc3N(C)C12 (stereo not drawn) [1,2,3,3a,8,8a-Hexahydro-α-oxo-1,3a,8-trimethyl-5-pyrrolo[2,3-b]indole acetic acid, phenylethyl ester]",% of Animals with Scopolamine Induced Memory Deficit Reversal,[1]; dose 0.1 mg/kg of body weight,29%
same,% of Animals with Scopolamine Induced Memory Deficit Reversal,[1]; dose 0.3 mg/kg of body weight,36%
same,% of Animals with Scopolamine Induced Memory Deficit Reversal,[1]; dose 1.0 mg/kg of body weight,20%
same,IC50,Brain AChE,9.1 µM
"CN1CCC2(C)c3cc(C(=O)C(=O)OCc4ccccc4)ccc3N(C)C12 (stereo not drawn) [1,2,3,3a,8,8a-Hexahydro-α-oxo-1,3a,8-trimethyl-5-pyrrolo[2,3-b]indole acetic acid, phenylmethyl ester]",IC50,Brain AChE; [2],4.4 µM
"CC[C@@H]1C(=O)OC[C@@H]1Cc1cncn1C [Pilocarpine, reference compound]",% of Animals with Scopolamine Induced Memory Deficit Reversal,[1]; dose 5.0 mg/kg of body weight,13%
"Nc1c2c(nc3ccccc13)CCCC2 [Tacrine, reference compound]",% of Animals with Scopolamine Induced Memory Deficit Reversal,[1]; dose 0.63 mg/kg of body weight,13%
